# Measured values as given in patent publication US4971962A, “Cephalosporin compounds” (Lucky, Ltd., priority 1988, dated 1990).
# Like-named read-outs stand apart in the source and are kept apart here.
# How the values were obtained:
# [1] = rat (SD), i.v. 20 mg/kg, II Compartment; cited from earlier work
# [2] = tested on: Serratia marcescens ATCC 27117; test: In-vitro antibacterial activity (MIC), two-fold dilution method; type: cell-based; conditions: read-out: minimal inhibitory concentration (MIC)
# Procedure: (§1) In-vitro antibacterial activity was determined by the two-fold dilution method as described below. 2 μl of the test microorganism which has the 10^7 CFU per ml was inoculated on the Muller-Hinton agar which has been dispersed by the test compound, and was incubated at 37° C. for 20 hours.
# [3] = tested on: Salmonella typhimurium ATCC 14028; test: as above; type: cell-based; conditions: Salmonella enterica, read-out: minimal inhibitory concentration (MIC)
# Procedure: as §1
# [4] = tested on: Pseudomonas aeruginosa ATCC 25619; test: as above; type: cell-based; conditions: read-out: minimal inhibitory concentration (MIC)
# Procedure: as §1
# [5] = tested on: Pseudomonas aeruginosa ATCC 27853; test: as above; type: cell-based; conditions: read-out: minimal inhibitory concentration (MIC)
# Procedure: as §1
# [6] = tested on: Staphylococcus aureus ATCC 10537; test: as above; type: cell-based; conditions: read-out: minimal inhibitory concentration (MIC)
# Procedure: as §1
# [7] = tested on: Klebsiella pneumoniae ATCC 10031; test: as above; type: cell-based; conditions: read-out: minimal inhibitory concentration (MIC)
# Procedure: as §1
# [8] = tested on: Escherichia coli ATCC 10536; test: as above; type: cell-based; conditions: read-out: minimal inhibitory concentration (MIC)
# Procedure: as §1
# [9] = tested on: Bacillus subtilis ATCC 6633; test: as above; type: cell-based; conditions: read-out: minimal inhibitory concentration (MIC)
# Procedure: as §1
# [10] = tested on: Pseudomonas aeruginosa ATCC 10145; test: as above; type: cell-based; conditions: read-out: minimal inhibitory concentration (MIC)
# Procedure: as §1
# [11] = tested on: Enterobacter aerogenes ATCC 29751; test: as above; type: cell-based; conditions: Klebsiella aerogenes, read-out: minimal inhibitory concentration (MIC)
# Procedure: as §1
# [12] = tested on: Proteus mirabilis ATCC 25933; test: as above; type: cell-based; conditions: read-out: minimal inhibitory concentration (MIC)
# Procedure: as §1
# [13] = tested on: gram-positive bacteria, especially, Staphylococcus aureus and Bacillus subtilis; test: In-vitro antibacterial activity, comparison over gram-positive bacteria; type: cell-based; conditions: from Table 1
# Procedure: as §1
# [14] = tested on: gram-negative bacteria including Pseudomonas aeruginosa; test: In-vitro antibacterial activity, comparison over gram-negative bacteria; type: cell-based; conditions: from Table 1
# Procedure: as §1
# [15] = dog (Beagle), i.v. 20 mg/kg, II Compartment; cited from earlier work
# [16] = monkey (Rhesus), i.v. 20 mg/kg, II Compartment; cited from earlier work
# [17] = Pharmacokinetics of compound (Ib) in rat, intravenous, plasma by HPLC; type: in vivo, rat (Fischer); conditions: for half-life: rat, 14.29 mg/kg
# Procedure: The pharmacokinetics of the invented compound (Ib) was studied in rat (Fischer, 6~10 weeks). The compound (Ib) was dissolved in phosphate bupper solution(0.05M; pH=9) and intraveneouly administered in a dose of 14.29 mg/kg to four rats, and blood samples from the rats were taken at 1, 5, 10 and 30 mins and 1, 2, 3, 5 and 7 hours after administration of the compound (Ib), respectively.
# The concentrations in plasma were measured by HPLC analysis of blood samples, and the results of average concentrations in plasma were listed in Table 2.
# [18] = ATCC27117, Serratia marcescens ATCC 27117, Muller-Hinton agar, 37° C., 20 hours
# [19] = Salmonella typhimurium ATCC 14028, Muller-Hinton agar, 37° C., 20 hours
# [20] = ATCC25619, Pseudomonas aeruginosa ATCC 25619, Muller-Hinton agar, 37° C., 20 hours
# [21] = ATCC27853, Pseudomonas aeruginosa ATCC 27853, Muller-Hinton agar, 37° C., 20 hours
# [22] = Staphylococcus aureus, ATCC10537, 20 h
# [23] = ATCC10031, Klebsiella pneumoniae ATCC 10031, Muller-Hinton agar, 37° C., 20 hours
# [24] = ATCC10536, Escherichia coli ATCC 10536, Muller-Hinton agar, 37° C., 20 hours
# [25] = Bacillus subtilis, ATCC6633, 20 h
# [26] = ATCC10145, Pseudomonas aeruginosa ATCC 10145, Muller-Hinton agar, 37° C., 20 hours
# [27] = ATCC29751, Enterobacter aerogenes ATCC 29751, Muller-Hinton agar, 37° C., 20 hours
# [28] = ATCC25933, Proteus mirabilis ATCC 25933, Muller-Hinton agar, 37° C., 20 hours
# [29] = Pseudomonas aeruginosa, ATCC10145, 20 h
# [30] = ATCC10537, Staphylococcus aureus ATCC 10537, Muller-Hinton agar, 37° C., 20 hours
# [31] = ATCC6633, Bacillus subtilis ATCC 6633, Muller-Hinton agar, 37° C., 20 hours
SMILES,"MIC [2, 18] [µg/mL]","MIC [3, 19] [µg/mL]","MIC [4, 20] [µg/mL]","MIC [5, 21] [µg/mL]","MIC [6, 22] [µg/mL]","MIC [7, 23] [µg/mL]","MIC [8, 24] [µg/mL]","MIC [9, 25] [µg/mL]","MIC [10, 26] [µg/mL]","MIC [11, 27] [µg/mL]","MIC [12, 28] [µg/mL]",activity against gram-positive bacteria as compared with ceftazidime and moxalactam [13],activity against gram-negative bacteria as compared with ceftazidime and moxalactam [14],other results
CO/N=C(\C(=O)N[C@@H]1C(=O)N2C(C(=O)O)=C(COC(C)=O)CS[C@H]12)c1csc(N)n1 [Cefotaxime],,,,,,,,,,,,,,AUC [1]: 13.5 µg·h/mL; T1/2 (α) [1]: 4.55 min; T1/2 (β) [1]: 14.8 min
"CC(=O)OCC1=C(C(=O)O)N2C(=O)C(NC(=O)/C(=N\OCc3ccco3)c3csc(N)n3)C2SC1 (centres unmarked) [(Ia), 7-[(Z)-2-(2-Aminothiazol-4-yl)-2-(2-furfuryl-oxyimino)acetamido]-3-acetoxymethyl-3-cephem-4-carboxylic acid]",1,2,1,16,1,< 0.0312,0.5,0.5,16,16,0.125,superior antimicrobiral activities,almost equally active,
"CC(C)(O/N=C(\C(=O)N[C@@H]1C(=O)N2C(C(=O)[O-])=C(C[n+]3ccccc3)CS[C@H]12)c1csc(N)n1)C(=O)O [Ceftazidime, reference compound]",,,,,4,,,16,,,,,,"MIC ([2]; Serratia marcescens, ATCC27117, 20 h): 0.0625 µg/mL; MIC ([3]; 20 h): 0.25 µg/mL; MIC ([4]; Pseudomonas aeruginosa, ATCC25619, 20 h): 1 µg/mL; MIC ([5]; Pseudomonas aeruginosa, ATCC27853, 20 h): 2 µg/mL; MIC ([7]; Klebsiella pneumoniae, ATCC10031, 20 h): 0.125 µg/mL; MIC ([8]; Escherichia coli, ATCC10536, 20 h): 0.125 µg/mL; MIC [10, 29]: 2 µg/mL; MIC ([11]; ATCC29751, 20 h): 4 µg/mL; MIC ([12]; Proteus mirabilis, ATCC25933, 20 h): 0.0625 µg/mL; AUC [15]: 93.0 µg·h/mL"
CO/N=C(\C(=O)N[C@@H]1C(=O)N2C(C(=O)O)=C(CSc3nc(=O)c(=O)[nH]n3C)CS[C@H]12)c1csc(N)n1 [Ceftriaxone],,,,,,,,,,,,,,AUC [15]: 84.3 µg·h/mL; T1/2 (α) [15]: 6.80 min; T1/2 (β) [15]: 50.7 min; AUC [16]: 838 µg·h/mL; T1/2 (α) [16]: 23.16 min; T1/2 (β) [16]: 204 min
"Cn1nnnc1SCC1=C(C(=O)O)N2C(=O)C(NC(=O)/C(=N\OCc3ccco3)c3csc(N)n3)C2SC1 (centres unmarked) [(Ic), Sodium 7-[(Z)-2-(2-aminothiazol-4-yl)-2-(2-furfuryloxyimino)-acetamido]-3-[(1-methyl-1H-tetrazol-5-yl)thiomethyl]-3-cephem-4-carboxylate]",1,2,1,16,,< 0.0315,0.5,,16,8,0.25,superior antimicrobiral activities,almost equally active,"MIC [6, 30]: 1 µg/mL; MIC [9, 31]: 0.5 µg/mL"
"CO[C@@]1(NC(=O)C(C(=O)O)c2ccc(O)cc2)C(=O)N2C(C(=O)O)=C(CSc3nnnn3C)CO[C@@H]21 (some centres unmarked) [Moxalactam, reference compound]",0.125,0.25,8,16,,0.25,0.125,8,,1,0.25,,,"MIC [6, 30]: 4 µg/mL; MIC [10, 29]: 32 µg/mL"
"Nc1nc(/C(=N/OCc2ccco2)C(=O)NC2C(=O)N3C(C(=O)[O-])=C(C[n+]4ccccc4)CSC23)cs1 (centres unmarked) [Compound (Ib), 7-[(Z)-2-(2-Aminothiazol-4-yl)-2-(2-furfuryl-oxyimino)acetamido]-3-(1-pyridiniummethyl)-3-cephem-4-carboxylate]",0.5,2,1,8,0.25,0.0625,0.5,,8,4,0.5,superior antimicrobiral activities,almost equally active,"AUC ratio to cefotaxime ([17]; Ib in rat vs cefotaxime in rat): 6.5 times; T1/2 (β) ratio to cefotaxime in rat ([17]; Ib in rat vs cefotaxime in rat): 6.4 times; T1/2 (β) ratio to ceftazidime or ceftriaxone in dog ([17]; Ib in rat vs ceftazidime or ceftriaxone in dog): 1.9 times; AUC ([17]; plasma, iv, rat (Fischer), i.v. 14.29 mg/kg, II Compartment): 62400 ng·h/mL; concentration at 1 min ([17]; plasma, iv, rat (Fischer), i.v. 14.29 mg/kg, average of four rats, 1 min): 112 µg/mL; concentration at 5 min ([17]; plasma, iv, rat (Fischer), i.v. 14.29 mg/kg, average of four rats, 5 min): 60.6 µg/mL; concentration at 10 min ([17]; plasma, iv, rat (Fischer), i.v. 14.29 mg/kg, average of four rats, 10 min): 43000 ng/mL; concentration at 0.5 h ([17]; plasma, iv, rat (Fischer), i.v. 14.29 mg/kg, average of four rats, 30 min): 20700 ng/mL; concentration at 1 h ([17]; plasma, iv, rat (Fischer), i.v. 14.29 mg/kg, average of four rats, 1 hr): 12600 ng/mL; concentration at 2 h ([17]; plasma, iv, rat (Fischer), i.v. 14.29 mg/kg, average of four rats, 2 hr): 6100 ng/mL; concentration at 3 h ([17]; plasma, iv, rat (Fischer), i.v. 14.29 mg/kg, average of four rats, 3 hr): 4300 ng/mL; concentration at 5 h ([17]; plasma, iv, rat (Fischer), i.v. 14.29 mg/kg, average of four rats, 5 hr): 1600 ng/mL; concentration at 7 h ([17]; plasma, iv, rat (Fischer), i.v. 14.29 mg/kg, average of four rats, 7 hr): 900 ng/mL; half-life ([17]; plasma, iv, rat (Fischer), i.v. 14.29 mg/kg, II Compartment, read-out: T1/2 (α)): 6.21 min; half-life ([17]; plasma, iv, rat (Fischer), i.v. 14.29 mg/kg, II Compartment, read-out: T1/2 (β)): 95 min; MIC [9, 31]: 0.25 µg/mL"
